Experimental data as given in ChEMBL document CHEMBL3286176, “Discovery and structure-activity relationship of novel 2,3-dihydrobenzofuran-7-carboxamide and 2,3-dihydrobenzofuran-3(2H)-one-7-carboxamide derivatives as poly(ADP-ribose)polymerase-1 inhibitors” (J Med Chem, 2014).

target: Poly [ADP-ribose] polymerase 1 (Homo sapiens, UniProt P09874); test: Inhibition of PARP-1 (unknown origin) using biotinylated NAD+ as substrate after 60 mins by spectrophotometry; conditions: not given
Sequence (P09874 whole entry): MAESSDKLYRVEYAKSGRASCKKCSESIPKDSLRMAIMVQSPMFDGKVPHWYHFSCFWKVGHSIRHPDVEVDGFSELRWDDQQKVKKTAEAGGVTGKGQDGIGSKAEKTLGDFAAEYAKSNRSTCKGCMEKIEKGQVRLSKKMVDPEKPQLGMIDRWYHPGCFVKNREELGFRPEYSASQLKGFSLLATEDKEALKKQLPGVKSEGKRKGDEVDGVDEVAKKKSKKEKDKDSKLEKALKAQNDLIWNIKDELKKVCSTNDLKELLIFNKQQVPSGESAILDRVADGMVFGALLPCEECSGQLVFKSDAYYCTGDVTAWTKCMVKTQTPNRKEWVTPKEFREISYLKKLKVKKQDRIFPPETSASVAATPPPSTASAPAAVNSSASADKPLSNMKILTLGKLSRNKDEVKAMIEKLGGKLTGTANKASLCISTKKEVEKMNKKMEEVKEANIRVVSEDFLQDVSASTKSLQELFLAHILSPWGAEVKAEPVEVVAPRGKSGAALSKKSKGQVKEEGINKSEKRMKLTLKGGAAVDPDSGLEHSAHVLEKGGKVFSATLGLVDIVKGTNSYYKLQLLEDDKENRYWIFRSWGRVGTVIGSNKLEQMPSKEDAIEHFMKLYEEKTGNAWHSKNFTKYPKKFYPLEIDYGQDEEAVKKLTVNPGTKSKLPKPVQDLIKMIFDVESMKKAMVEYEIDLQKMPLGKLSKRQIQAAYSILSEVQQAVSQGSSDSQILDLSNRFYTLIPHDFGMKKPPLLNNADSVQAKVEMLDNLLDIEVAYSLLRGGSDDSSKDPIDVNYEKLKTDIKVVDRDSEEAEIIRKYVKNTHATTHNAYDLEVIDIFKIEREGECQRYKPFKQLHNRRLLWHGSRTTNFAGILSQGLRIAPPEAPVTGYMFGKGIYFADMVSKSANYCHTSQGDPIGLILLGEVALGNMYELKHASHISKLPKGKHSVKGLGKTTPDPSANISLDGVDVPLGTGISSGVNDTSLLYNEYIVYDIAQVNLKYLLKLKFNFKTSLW

| IC50 [µM] | Structure (SMILES) |
| --- | --- |
| 9.45 | NC(=O)c1cccc2c1OCC2 |
| 6.34 | C[C@@H]1Cc2cccc(C(N)=O)c2O1 |
| 8.44 | C[C@H]1Cc2cccc(C(N)=O)c2O1 |
| 1.53 | C[C@@H]1Cc2cc(F)cc(C(N)=O)c2O1 |
| 3.62 | C[C@H]1Cc2cc(F)cc(C(N)=O)c2O1 |
| 2.12 | NC(=O)c1cc(F)cc2c1OCC2 |
| 16.2 | NC(=O)c1cccc2c1OCC2=O |
| 6.09 | NC(=O)c1cccc2c1O/C(=C\c1ccc(Cl)cc1)C2=O |
| 3.62 | COc1cc(/C=C2\Oc3c(C(N)=O)cccc3C2=O)ccc1O |
| 3.3 | COc1ccc(/C=C2\Oc3c(C(N)=O)cccc3C2=O)cc1 |
| 2.14 | NC(=O)c1cccc2c1O/C(=C\c1cccc(O)c1)C2=O |
| 0.813 | NC(=O)c1cccc2c1O/C(=C\c1ccc(O)cc1)C2=O |
| 0.531 | NC(=O)c1cccc2c1O/C(=C\c1ccc(O)c(O)c1)C2=O |
| 0.753 | NC(=O)c1cccc2c1O/C(=C\c1ccc(O)cc1O)C2=O |
| 0.114 | CN1CCN(CCOc2ccc(/C=C3\Oc4c(C(N)=O)cccc4C3=O)cc2)CC1 |
| 1.21 | NC(=O)c1cccc2c1O/C(=C\c1ccc(OCC3CO3)cc1)C2=O (stereo unspecified) |
| 0.445 | NC(=O)c1cccc2c1O/C(=C\c1ccc(OCCN3CCN(c4ccc(F)cc4)CC3)cc1)C2=O |
| 0.079 | CN1CCN(CCS(=O)(=O)Nc2ccc(/C=C3\Oc4c(C(N)=O)cccc4C3=O)cc2)CC1 |
| 0.113 | CN1CCN(CCCS(=O)(=O)Nc2ccc(/C=C3\Oc4c(C(N)=O)cccc4C3=O)cc2)CC1 |
| 10.4 | CC1Cc2cccc(C(N)=O)c2O1 (racemic) |
| 2.45 | CC1Cc2cc(F)cc(C(N)=O)c2O1 (racemic) |
| 5.33 | CC1Cc2c(N)ccc(C(N)=O)c2O1 (single isomer, unassigned) |
| 2.43 | CC1Cc2c(N)ccc(C(N)=O)c2O1 (single isomer, unassigned; enantiomer 1) |

More lines, now with the values behind:

| Structure (SMILES) | IC50 [µM] |
| --- | --- |
| NC(=O)c1cc(Br)cc2c1OCC2 | > 25 |
| NC(=O)c1cc([N+](=O)[O-])cc2c1OCC2 | > 25 |
| NC(=O)c1cc(N)cc2c1OCC2 | > 25 |
| Cc1cc2c(c(C(N)=O)c1)OC(C)C2 (stereo unspecified) | > 25 |
| CC1Cc2cc([N+](=O)[O-])cc(C(N)=O)c2O1 (stereo unspecified) | > 25 |
| CC1Cc2cc(N)cc(C(N)=O)c2O1 (stereo unspecified) | > 25 |
| NC(=O)c1nn(CCCN2C(=O)C(=O)c3ccccc32)c2ccccc12 | 6.8 |
| NC(=O)c1cccc2c1O/C(=C\c1cccc(Oc3ccccc3)c1)C2=O | 4.65 |
| NC(=O)c1cccc2c1O/C(=C\c1ccccc1O)C2=O | > 10 |
| NC(=O)c1cccc2c1O/C(=C\c1cc(O)cc(O)c1)C2=O | > 10 |
| NC(=O)c1cccc2c1O/C(=C\c1cc(O)ccc1O)C2=O | > 10 |
| NC(=O)c1cccc2c1O/C(=C\c1cccc(OCCN3CCOCC3)c1)C2=O | > 10 |
| NC(=O)c1cccc2c1O/C(=C\c1cccc(OCCN3CCCCC3)c1)C2=O | > 10 |
| NC(=O)c1cccc2c1O/C(=C\c1ccc(OCCN3CCCCC3)cc1)C2=O | 0.544 |
| NC(=O)c1cccc2c1O/C(=C\c1ccc(OCCN3CCOCC3)cc1)C2=O | 2.07 |
| NC(=O)c1cccc2c1O/C(=C\c1ccc(OCCCN3CCOCC3)cc1)C2=O | 0.718 |
| NC(=O)c1cccc2c1O/C(=C\c1ccc(OCC(=O)N3CCOCC3)cc1)C2=O | 0.223 |
| NC(=O)c1cccc2c1O/C(=C\c1ccc(OCC(O)CN3CCOCC3)cc1)C2=O (stereo unspecified) | 0.176 |

tested on: not listed separately; test: Cytotoxicity against chicken wild-type DT40 cells assessed as cell viability at 10 uM after 72 hrs by ATPlite assay; type: cell-based, Gallus gallus; conditions: dt40, 72 h

| Structure (SMILES) | Activity |
| --- | --- |
| CN1CCN(CCOc2ccc(/C=C3\Oc4c(C(N)=O)cccc4C3=O)cc2)CC1 | Toxic |
| C[C@]1(c2nc3c(C(N)=O)cccc3[nH]2)CCCN1 [VELIPARIB] | Non-toxic |

tested on: not listed separately; test: Cytotoxicity against chicken PARP1-deficient DT40 cells assessed as cell viability at 10 uM after 72 hrs by ATPlite assay; type: cell-based, Gallus gallus; conditions: dt40, 72 h

| Structure (SMILES) | Activity |
| --- | --- |
| CN1CCN(CCOc2ccc(/C=C3\Oc4c(C(N)=O)cccc4C3=O)cc2)CC1 | Toxic |
| C[C@]1(c2nc3c(C(N)=O)cccc3[nH]2)CCCN1 [VELIPARIB] | Non-toxic |

tested on: not listed separately; test: Cytotoxicity against chicken BRCA2-deficient DT40 cells assessed as cell viability after 72 hrs by ATPlite assay; type: cell-based, Gallus gallus; conditions: not given

| Structure (SMILES) | IC90 at 72 h [µM] |
| --- | --- |
| CN1CCN(CCOc2ccc(/C=C3\Oc4c(C(N)=O)cccc4C3=O)cc2)CC1 | 5.2 |
